According to PubChem BioAssay (NCI):
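Results reflect a 48-hour exposure of cells in 96-well plates to compound at five concentrations. GI50 = concentration required for 50% inhibition of growth. TGI is the concentration that stops growth completely.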

Key:
Experiment in all cases: NCI-60 cell line screen, 48 h
OVCAR-8 ovarian = test system: OVCAR-8 ovarian
HT29 colon = test system: HT29 colon
SR leukemia = test system: SR leukemia
HCT-116 colon = test system: HCT-116 colon
SNB-75 CNS = test system: SNB-75 CNS
RXF 393 renal = test system: RXF 393 renal
K-562 leukemia = test system: K-562 leukemia
HCT-15 colon = test system: HCT-15 colon
SNB-19 CNS = test system: SNB-19 CNS
SK-MEL-5 melanoma = test system: SK-MEL-5 melanoma
OVCAR-3 ovarian = test system: OVCAR-3 ovarian
NCI/ADR-RES ovarian = test system: NCI/ADR-RES ovarian
NCI-H460 lung = test system: NCI-H460 lung
UO-31 renal = test system: UO-31 renal
UACC-62 melanoma = test system: UACC-62 melanoma
HOP-62 NSCLC = test system: HOP-62 NSCLC
TK-10 renal = test system: TK-10 renal
UACC-257 melanoma = test system: UACC-257 melanoma
SK-OV-3 ovarian = test system: SK-OV-3 ovarian
MDA-MB-231 breast = test system: MDA-MB-231 breast
786-0 renal = test system: 786-0 renal
MDA-MB-435 = test system: MDA-MB-435
SK-MEL-28 melanoma = test system: SK-MEL-28 melanoma
SF-268 CNS = test system: SF-268 CNS
CAKI-1 renal = test system: CAKI-1 renal
DU-145 prostate = test system: DU-145 prostate
KM12 colon = test system: KM12 colon
SN12C renal = test system: SN12C renal
MCF7 breast = test system: MCF7 breast
OVCAR-5 ovarian = test system: OVCAR-5 ovarian
MOLT-4 leukemia = test system: MOLT-4 leukemia
SF-295 CNS = test system: SF-295 CNS
T-47D breast = test system: T-47D breast
OVCAR-4 ovarian = test system: OVCAR-4 ovarian
HCC-2998 colon = test system: HCC-2998 colon
EKVX NSCLC = test system: EKVX NSCLC
RPMI-8226 leukemia = test system: RPMI-8226 leukemia
U251 CNS = test system: U251 CNS
HL-60(TB) leukemia = test system: HL-60(TB) leukemia
A549 NSCLC = test system: A549 NSCLC
A498 renal = test system: A498 renal
LOX IMVI melanoma = test system: LOX IMVI melanoma
SF-539 CNS = test system: SF-539 CNS
NCI-H23 lung = test system: NCI-H23 lung
BT-549 breast = test system: BT-549 breast
NCI-H522 lung = test system: NCI-H522 lung
COLO 205 colon = test system: COLO 205 colon
HS 578T breast = test system: HS 578T breast
MALME-3M melanoma = test system: MALME-3M melanoma
PC-3 prostate = test system: PC-3 prostate
CCRF-CEM leukemia = test system: CCRF-CEM leukemia
SK-MEL-2 melanoma = test system: SK-MEL-2 melanoma
IGROV1 ovarian = test system: IGROV1 ovarian
ACHN renal = test system: ACHN renal
HOP-92 NSCLC = test system: HOP-92 NSCLC

Compound `CCOC(=O)c1ccc2c(c1)nc(-c1ccc(Cl)cc1)n2-c1cc(C(C)(C)C)[nH]n1` has a GI50 (OVCAR-8 ovarian) of 2.55 µM, a TGI (OVCAR-8 ovarian) of 12.7 µM and a GI50 (HT29 colon) of 2.79 µM. The TGI (HT29 colon) was 7.17 µM, the GI50 (SR leukemia) was 0.635 µM and the TGI (SR leukemia) was 8.16 µM. For the same compound, the GI50 (HCT-116 colon) was 3.12 µM, the TGI (HCT-116 colon) was 29.9 µM and the GI50 (SNB-75 CNS) was 2.53 µM. It also gave a TGI (SNB-75 CNS) greater than 100 µM, a GI50 (RXF 393 renal) of 1.81 µM and a TGI (RXF 393 renal) of 5.87 µM. The GI50 (K-562 leukemia) was 2.72 µM, the TGI (K-562 leukemia) was 16.1 µM and the GI50 (HCT-15 colon) was 3.27 µM. It also gave a TGI (HCT-15 colon) greater than 100 µM, a GI50 (SNB-19 CNS) of 3.32 µM and a TGI (SNB-19 CNS) greater than 100 µM. It also gave a GI50 (SK-MEL-5 melanoma) of 1.33 µM, a TGI (SK-MEL-5 melanoma) of 3.39 µM and a GI50 (OVCAR-3 ovarian) of 2.05 µM. The TGI (OVCAR-3 ovarian) was 5.65 µM, the GI50 (NCI/ADR-RES ovarian) was 2.13 µM and the TGI (NCI/ADR-RES ovarian) was 6.65 µM. It also gave a GI50 (NCI-H460 lung) of 2.94 µM, a TGI (NCI-H460 lung) of 8.02 µM and a GI50 (UO-31 renal) of 2.76 µM. The TGI (UO-31 renal) was 45.7 µM, the GI50 (UACC-62 melanoma) was 1.67 µM and the TGI (UACC-62 melanoma) was 4 µM. The GI50 (HOP-62 NSCLC) was 3.69 µM, the TGI (HOP-62 NSCLC) was greater than 100 µM and the GI50 (TK-10 renal) was 3.62 µM. It also gave a TGI (TK-10 renal) greater than 100 µM, a GI50 (UACC-257 melanoma) of 3.41 µM and a TGI (UACC-257 melanoma) greater than 100 µM. It also gave a GI50 (SK-OV-3 ovarian) of 3.43 µM, a TGI (SK-OV-3 ovarian) of 36.9 µM and a GI50 (MDA-MB-231 breast) of 4.2 µM. It also gave a TGI (MDA-MB-231 breast) of 40.8 µM, a GI50 (786-0 renal) of 3.17 µM and a TGI (786-0 renal) greater than 100 µM. It also gave a GI50 (MDA-MB-435) of 0.717 µM, a TGI (MDA-MB-435) of 7.1 µM and a GI50 (SK-MEL-28 melanoma) of 2.49 µM. For the same compound, the TGI (SK-MEL-28 melanoma) was 12.2 µM, the GI50 (SF-268 CNS) was 3.13 µM and the TGI (SF-268 CNS) was 13.8 µM. It also gave a GI50 (CAKI-1 renal) of 2.77 µM, a TGI (CAKI-1 renal) greater than 100 µM and a GI50 (DU-145 prostate) of 2.85 µM. For the same compound, the GI50 (KM12 colon) was 2.78 µM, the TGI (KM12 colon) was 14.2 µM and the GI50 (SN12C renal) was 3.33 µM. It also gave a TGI (SN12C renal) of 40.6 µM, a GI50 (MCF7 breast) of 2.78 µM and a TGI (MCF7 breast) of 12.2 µM. The GI50 (OVCAR-5 ovarian) was 3.68 µM, the TGI (OVCAR-5 ovarian) was greater than 100 µM and the GI50 (MOLT-4 leukemia) was 3.28 µM. It also gave a TGI (MOLT-4 leukemia) of 30.4 µM, a GI50 (SF-295 CNS) of 2.62 µM and a TGI (SF-295 CNS) of 11.4 µM. For the same compound, the GI50 (T-47D breast) was 3.78 µM, the TGI (T-47D breast) was greater than 100 µM and the GI50 (OVCAR-4 ovarian) was 3.64 µM. The TGI (OVCAR-4 ovarian) was greater than 100 µM, the GI50 (HCC-2998 colon) was 3.03 µM and the TGI (HCC-2998 colon) was 16.2 µM. The GI50 (EKVX NSCLC) was 3.02 µM, the TGI (EKVX NSCLC) was greater than 100 µM and the GI50 (RPMI-8226 leukemia) was 2.99 µM. It also gave a TGI (RPMI-8226 leukemia) of 22.9 µM, a GI50 (U251 CNS) of 3.04 µM and a TGI (U251 CNS) greater than 100 µM. For the same compound, the GI50 (HL-60(TB) leukemia) was 3.65 µM, the TGI (HL-60(TB) leukemia) was 9.2 µM and the GI50 (A549 NSCLC) was 3.13 µM. It also gave a TGI (A549 NSCLC) greater than 100 µM, a GI50 (A498 renal) of 2.19 µM and a TGI (A498 renal) of 6.51 µM. It also gave a GI50 (LOX IMVI melanoma) of 2.73 µM, a TGI (LOX IMVI melanoma) of 10.8 µM and a GI50 (SF-539 CNS) of 2.16 µM. It also gave a TGI (SF-539 CNS) of 4.99 µM, a GI50 (NCI-H23 lung) of 2.72 µM and a TGI (NCI-H23 lung) greater than 100 µM. The GI50 (BT-549 breast) was 2.88 µM, the TGI (BT-549 breast) was 8.4 µM and the GI50 (NCI-H522 lung) was 2.52 µM. The TGI (NCI-H522 lung) was 6.66 µM, the GI50 (COLO 205 colon) was 2.23 µM and the TGI (COLO 205 colon) was 4.75 µM. For the same compound, the GI50 (HS 578T breast) was 2.76 µM, the TGI (HS 578T breast) was 8.57 µM and the GI50 (MALME-3M melanoma) was 2.75 µM. The TGI (MALME-3M melanoma) was 9.18 µM, the GI50 (PC-3 prostate) was 2.82 µM and the TGI (PC-3 prostate) was greater than 100 µM. For the same compound, the GI50 (CCRF-CEM leukemia) was 3.06 µM, the TGI (CCRF-CEM leukemia) was 34.1 µM and the GI50 (SK-MEL-2 melanoma) was 1.93 µM. It also gave a TGI (SK-MEL-2 melanoma) of 4.4 µM, a GI50 (IGROV1 ovarian) of 3.77 µM and a TGI (IGROV1 ovarian) greater than 100 µM. It also gave a GI50 (ACHN renal) of 3.28 µM, a TGI (ACHN renal) of 10.1 µM and a GI50 (HOP-92 NSCLC) of 1.02 µM. The TGI (HOP-92 NSCLC) was 4.79 µM.
